This is an account of results in patent US10723699B2 (Hyundai Pharm Co., Ltd., priority 2015, dated 2020).

Molecules are shown by their SMILES. Like-named read-outs stand apart in the source and are kept apart here. A value given as a limit tells only on which side of the number the result lay.

The target of the assay is T1, G protein-coupled receptor 119 (GPR-119) (Mesocricetus auratus, UniProt A0A1U8CD06).
T1 construct: hamster-derived β-cells containing G protein-coupled receptor 119 (GPR-119), HIT-T15 cells; host or cells: HIT-T15 (hamster pancreatic β-cells)
T1 sequence (A0A1U8CD06 1-334): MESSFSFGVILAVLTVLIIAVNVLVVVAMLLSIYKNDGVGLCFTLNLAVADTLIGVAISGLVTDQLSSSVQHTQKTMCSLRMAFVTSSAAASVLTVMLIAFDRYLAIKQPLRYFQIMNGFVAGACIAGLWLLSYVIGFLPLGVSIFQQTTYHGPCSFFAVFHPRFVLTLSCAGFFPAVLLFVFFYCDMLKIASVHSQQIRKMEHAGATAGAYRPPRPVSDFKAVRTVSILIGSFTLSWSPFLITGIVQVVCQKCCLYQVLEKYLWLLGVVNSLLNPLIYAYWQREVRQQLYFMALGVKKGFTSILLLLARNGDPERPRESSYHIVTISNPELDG
The experiment in a line: cAMP activity in HIT-T15 cells (cAMP dynamic kit, FRET). The assay is classed as cell-based, hamster. Put shortly:
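Hamster HIT-T15 cells (60,000/well) were treated next day with compound at six concentrations, 0.0032–10 μM, for 1 h at 37° C. Cells were then lysed and cAMP measured by competitive HTRF immunoassay (D2-cAMP, cryptate anti-cAMP). Activity was derived as the change in FRET signal relative to DMSO.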

Where [1] appears, read: 1 hour at 37° C., six concentrations 0.0032 to 10 μM, read-out: EC50.

`CC(C)c1noc(N2CCC(COc3ccc(C4=CCC(C(=O)N5CCN(C6CC6)CC5)CC4)cc3F)CC2)n1` (stereo not drawn) [Example 348, (4-cyclopropylpiperazin-1-yl)(4-(3-fluoro-4-((1-(3-isopropyl-1,2,4-oxadiazol-5-yl)piperidin-4-yl)methoxy)phenyl)cyclohex-3-enyl)methanone]: the EC50 was 14 nM under setting [1] and at most 50 nM (Table 2, read-out: EC50 value).

For the compound `O=C(C1CC=C(c2ccc(OCC3CCN(c4nc(C(F)(F)F)no4)CC3)c(F)c2)CC1)N1CCCC1` (stereo not drawn) [Example 435, (4-(3-fluoro-4-((1-(3-(trifluoromethyl)-1,2,4-oxadiazol-5-yl)piperidin-4-yl)methoxy)phenyl)cyclohex-3-enyl)(pyrrolidin-1-yl)methanone], the EC50 by setting is: under setting [1], 13 nM; (Table 2, read-out: EC50 value) at most 50 nM.

As to `CCc1cnc(N2CCC(COc3ccc(C4=CCC(C(=O)NCCF)CC4)cc3F)CC2)nc1` (stereo not drawn) [Example 322, 4-(4-((1-(5-ethylpyrimidin-2-yl)piperidin-4-yl)methoxy)-3-fluorophenyl)-N-(2-fluoroethyl)cyclohex-3-enecarboxamide], the EC50 under setting [1] stood at 62 nM.

Regarding `CC(C)(C)OC(=O)N1CCC(COc2ccc(C3=CCC(C(=O)N4CCCC4)CC3)nc2)CC1` (stereo not drawn) [Example 312, tert-butyl 4-((6-(4-(pyrrolidine-1-carbonyl)cyclohex-1-enyl)pyridin-3-yloxy)methyl)piperidine-1-carboxylate], the EC50 under setting [1] stood at 120 nM.

For `CCc1cnc(N2CCC(COc3ccc(C4=CCC(C(=O)N5CCC(F)(F)CC5)CC4)cc3F)CC2)nc1` (stereo not drawn) [Example 457, (4,4-difluoropiperidin-1-yl)(4-(4-((1-(5-ethylpyrimidin-2-yl)piperidin-4-yl)methoxy)-3-fluorophenyl)cyclohex-3-enyl)methanone], the EC50 by setting is: under setting [1], 9.8 nM; (Table 2, read-out: EC50 value) at most 50 nM.

As for `O=C(C1CC=C(c2ccc(OCC3CCN(C(=O)C4(C(F)(F)F)CCCC4)CC3)c(F)c2)CC1)N1CCCC1` (stereo not drawn) [Example 409, (4-(3-fluoro-4-((1-(1-(trifluoromethyl)cyclopentanecarbonyl)piperidin-4-yl)methoxy)phenyl)cyclohex-3-enyl)(pyrrolidin-1-yl)methanone], the EC50 under setting [1] came out at 62 nM.

In the case of `CC(OC(=O)N1CCC(COc2ccc(C3=CCC(C(=O)N4CCOCC4)CC3)cc2F)CC1)C(F)(F)F` (stereo not drawn) [Example 440, 1,1,1-trifluoropropan-2-yl 4-((2-fluoro-4-(4-(morpholine-4-carbonyl)cyclohex-1-enyl)phenoxy)methyl)piperidine-1-carboxylate], the EC50 was 8.7 nM under setting [1] and at most 50 nM (Table 2, read-out: EC50 value).

As for `CC(C)(C)OC(=O)N1CCC(COc2ccc(C3=CCC(C(=O)N4CCC(C#N)CC4)CC3)nc2)CC1` (stereo not drawn) [Example 340, tert-butyl 4-((6-(4-(4-cyanopiperidine-1-carbonyl)cyclohex-1-enyl)pyridin-3-yloxy)methyl)piperidine-1-carboxylate], the EC50 runs as follows: under setting [1], 28 nM; (Table 2, read-out: EC50 value) at most 50 nM.

As for `CC(C)c1noc(N2CCC(COc3ccc(C4=CCC(C(=O)NC5CC5)CC4)cc3F)CC2)n1` (stereo not drawn) [Example 363, N-cyclopropyl-4-(3-fluoro-4-((1-(3-isopropyl-1,2,4-oxadiazol-5-yl)piperidin-4-yl)methoxy)phenyl)cyclohex-3-enecarboxamide], the EC50 under setting [1] came out at 110 nM.

With `CCc1cnc(N2CCC(COc3ccc(C4=CCC(C(=O)N5CCC(=NO)CC5)CC4)cc3)CC2)nc1` (stereo not drawn) [Example 277, (4-(4-((1-(5-ethylpyrimidin-2-yl)piperidin-4-yl)methoxy)phenyl)cyclohex-3-enyl)(4-(hydroxyimino)piperidin-1-yl)methanone], where the note is “Table 2, read-out: EC50 value”, the EC50 is at most 50 nM.

As for `CCc1cnc(N2CCC(COc3ccc(C4=CCC(C(=O)N5CCCCC5)CC4)cc3C(F)(F)F)CC2)nc1` (stereo not drawn) [Example 375, (4-(4-((1-(5-ethylpyrimidin-2-yl)piperidin-4-yl)methoxy)-3-(trifluoromethyl)phenyl)cyclohex-3-enyl)(piperidin-1-yl)methanone], under setting [1], the EC50 turned out to be 110 nM.

Regarding `CC(C)c1noc(N2CCC(COc3ccc(C4=CCC(C(=O)N5CCC(CCO)CC5)CC4)cn3)CC2)n1` (stereo not drawn) [Example 320, (4-(2-hydroxyethyl)piperidin-1-yl)(4-(6-((1-(3-isopropyl-1,2,4-oxadiazol-5-yl)piperidin-4-yl)methoxy)pyridin-3-yl)cyclohex-3-enyl)methanone], under setting [1], the EC50 was 53 nM.

`CCc1cnc(N2CCC(COc3ccc(C4=CCC(C(=O)N5CCC(CO)CC5)CC4)cn3)CC2)nc1` (stereo not drawn) [Example 354, (4-(6-((1-(5-ethylpyrimidin-2-yl)piperidin-4-yl)methoxy)pyridin-3-yl)cyclohex-3-enyl)(4-(hydroxymethyl)piperidin-1-yl)methanone]: the EC50 under setting [1] stood at 22 nM and the EC50 (Table 2, read-out: EC50 value) was at most 50 nM.

With `CCc1cnc(N2CCC(COc3ccc(C4=CCC(C(=O)NC5CCC5)CC4)cc3F)CC2)nc1` (stereo not drawn) [Example 303, N-cyclobutyl-4-(4-((1-(5-ethylpyrimidin-2-yl)piperidin-4-yl)methoxy)-3-fluorophenyl)cyclohex-3-enecarboxamide], the EC50 under setting [1] was found to be 29 nM and the EC50 (Table 2, read-out: EC50 value) is at most 50 nM.

Consider `CCc1cnc(N2CCC(COc3ccc(C4=CCC(C(=O)N5CC(F)(F)C(F)(F)C5)CC4)c(F)c3)CC2)nc1` (single isomer, unassigned; (+)) [Example 464, (+)-(4-(4-((1-(5-ethylpyrimidin-2-yl)piperidin-4-yl)methoxy)-2-fluorophenyl)cyclohex-3-enyl)(3,3,4,4-tetrafluoropyrrolidin-1-yl)methanone], for which the EC50 was 13 nM under setting [1] and at most 50 nM (Table 2, read-out: EC50 value).

In the case of `CC(C)c1noc(N2CCC(COc3ccc(C4=CCC(C(=O)N5CCN(CCCO)CC5)CC4)cc3F)CC2)n1` (stereo not drawn) [Example 368, (4-(3-fluoro-4-((1-(3-isopropyl-1,2,4-oxadiazol-5-yl)piperidin-4-yl)methoxy)phenyl)cyclohex-3-enyl)(4-(3-hydroxypropyl)piperazin-1-yl)methanone], the EC50 is, setting by setting: under setting [1], 48 nM; (Table 2, read-out: EC50 value) at most 50 nM.

As to `CCc1cnc(N2CCC(COc3ccc(C4=CCC(C(=O)N5CCC(C#N)CC5)CC4)cc3C(F)(F)F)CC2)nc1` (stereo not drawn) [Example 398, 1-(4-(4-((1-(5-ethylpyrimidin-2-yl)piperidin-4-yl)methoxy)-3-(trifluoromethyl)phenyl)cyclohex-3-enecarbonyl)piperidine-4-carbonitrile], the EC50 under setting [1] came to 110 nM.

With `CCc1cnc(N2CCC(COc3ccc(C4=CCC(C(=O)N5CCCCC5)CC4)cc3C)CC2)nc1` (stereo not drawn) [Example 415, (4-(4-((1-(5-ethylpyrimidin-2-yl)piperidin-4-yl)methoxy)-3-methylphenyl)cyclohex-3-enyl)(piperidin-1-yl)methanone], the EC50 under setting [1] worked out at 55 nM.

Consider `CC(C)(C)OC(=O)N1CCC(COc2ccc(C3=CCC(C(=O)N4CCC(C#N)CC4)CC3)cc2)CC1` (stereo not drawn) [Example 262], for which the EC50 reads like this: under setting [1], 7 nM; (Table 2, read-out: EC50 value) at most 50 nM.

For `CCc1cnc(N2CCC(COc3ccc(C4=CCC(C(=O)N5CC=CC5)CC4)cc3)CC2)nc1` (stereo not drawn) [Example 235, (2,5-dihydro-1H-pyrrol-1-yl)(4-(4-((1-(5-ethylpyrimidin-2-yl)piperidin-4-yl)methoxy)phenyl)cyclohex-3-enyl)methanone], where the note is “Table 2, read-out: EC50 value”, the EC50 was at most 50 nM.

In general, EC50 refers to the concentration giving half of the maximal effect.
